# From patent US11000033B2, “Ketone or oxime compound, and herbicide” (NISSAN CHEMICAL CORPORATION, priority 2014, dated 2021)
# Experiments:
# Type in all cases: in vivo
# corn = assay: Test Example 5: effect on crop by foliage application, plastic box (symbol c); details: 320 g/ha, 3 weeks after application
# Summary of the method: (§1)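 Soil: sterilized diluvial. Container: plastic box, 21 × 13 cm, 7 cm deep. Sowing: spot-like, ~1.5 cm cover. Growth: greenhouse, 25° C. to 30° C.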
# [1] = tested on: Echinochloa crus-galli var. crus-galli; assay: Test Example 4: herbicidal effect by soil treatment (symbol H); details: application herbicide amount 320 g/ha
# Summary of the method: (§2)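 Seeds were sown in sterilized diluvial soil, covered with about 1.5 cm of soil, and the soil surface was sprayed with a water-diluted emulsion of the compound at a predetermined rate. Plants grew in a greenhouse at 25° C. to 30° C.; effects were scored visually 3 weeks after application.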
# Amaranthus retroflexus = assay: Test Example 5: herbicidal effect by foliage application, plastic box (symbol N); details: 320 g/ha, 3 weeks after application
# Summary of the method: (§3)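 Emulsion formulation, diluted with water to the intended rate, was applied uniformly to leaves by small sprayer. Recipients were 14-day greenhouse-grown seedlings (25° C. to 30° C.). Assessment followed at 3 weeks.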
# Cyperus difformis = assay: Test Example 3: herbicidal effect by foliage application, Wagner pot (symbol E); details: application herbicide amount 320 g/ha
# Summary of the method: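 Herbicidal activity was rated three weeks after a foliar spray of diluted emulsion concentrate, applied at a predetermined dose to plants grown for 14 days from seed in waterlogged alluvial soil within a 25–30 °C greenhouse.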
# Setaria viridis = assay: Test Example 5: herbicidal effect by foliage application, plastic box (symbol G); details: 320 g/ha, 3 weeks after application
# Summary of the method: as §3
# Monochoria vaginalis = assay: Test Example 2: herbicidal activity, application during weed generation in submerged conditions (symbol C); details: Table 23; application herbicide amount 320 g/ha; grade 0-5 by criteria of Test Example 1
# Summary of the method: (§4)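 Visual herbicidal ratings, taken three weeks after dosing, reflect post-emergence water-surface application to seedlings at one to two leaves. Conditions: co-sown weeds in alluvial soil flooded to 4 cm, greenhouse held at 25° C. to 30° C.; compound given as water-diluted emulsion at a fixed herbicide amount.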
# soybean = assay: Test Example 5: effect on crop by foliage application, plastic box (symbol d); details: 320 g/ha, 3 weeks after application
# Summary of the method: as §1
# Abutilon theophrasti = assay: Test Example 4: herbicidal effect by soil treatment (symbol M); details: application herbicide amount 320 g/ha
# Summary of the method: as §2
# Chenopodium album = assay: Test Example 4: herbicidal effect by soil treatment (symbol O); details: application herbicide amount 320 g/ha
# Summary of the method: as §2
# transplanted rice plant = assay: Test Example 1: effect on crop, application before weed generation in submerged conditions (symbol a); details: application herbicide amount 320 g/ha
# Summary of the method: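 Rice at 2.5 leaf stage transplanted into submerged soil (4 cm depth) sown with three weed species; herbicide applied before weed emergence.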
# Scirpus juncoides = assay: Test Example 2: herbicidal activity, application during weed generation in submerged conditions (symbol B); details: Table 23; application herbicide amount 320 g/ha; grade 0-5 by criteria of Test Example 1
# Summary of the method: as §4
# Veronica persica = assay: Test Example 4: herbicidal effect by soil treatment (symbol R); details: application herbicide amount 320 g/ha
# Summary of the method: as §2
# [2] = tested on: Echinochloa oryzacola Vasing.; assay: Test Example 1: herbicidal activity, application before weed generation in submerged conditions (symbol A); details: application herbicide amount 320 g/ha
# Summary of the method: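 Application before weed emergence: an aqueous dilution of the emulsion formulation was poured onto the surface of 4 cm-deep floodwater on the day of sowing. Effect was judged after 3 weeks (greenhouse, 25–30 °C).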
SMILES,"c: corn, effect on crop (criteria of Test Example 1) (corn)","Herbicidal effect grade, H: Echinochloa crus-galli var. crus-galli [1]","N: Amaranthus retroflexus, herbicidal effect (criteria of Test Example 1) (Amaranthus retroflexus)","herbicidal effect on E, grade 0-5 (Cyperus difformis)","G: Setaria viridis, herbicidal effect (criteria of Test Example 1) (Setaria viridis)","Herbicidal effect grade, C: Monochoria vaginalis (Monochoria vaginalis)","d: soybean, effect on crop (criteria of Test Example 1) (soybean)","Herbicidal effect grade, M: Abutilon theophrasti (Abutilon theophrasti)","Herbicidal effect grade, O: Chenopodium album (Chenopodium album)","Effect grade on crop, a: transplanted rice plant (transplanted rice plant)","Herbicidal effect grade, B: Scirpus juncoides (Scirpus juncoides)","Herbicidal effect grade, R: Veronica persica (Veronica persica)","Herbicidal effect grade, A: Echinochloa oryzacola Vasing. [2]","H: Echinochloa crus-galli var. crus-galli, herbicidal effect grade [1]","M: Abutilon theophrasti, herbicidal effect grade (Abutilon theophrasti)","O: Chenopodium album, herbicidal effect grade (Chenopodium album)","R: Veronica persica, herbicidal effect grade (Veronica persica)"
CON=C(C)CC1CC(OC(=O)COc2ccccc2)=C(c2c(C)cc(C)cc2OC)C1=O (stereo not drawn) [6-091],5 (Herbicidal ratio of 90% or more (almost completely withered)),5 (Herbicidal ratio of 90% or more (almost completely withered)),2 (Herbicidal ratio of 20% or higher and lower than 40%),5 (Herbicidal ratio of 90% or more (almost completely withered)),5 (Herbicidal ratio of 90% or more (almost completely withered)),3 (Herbicidal ratio of 40% or higher and lower than 70%),4 (Herbicidal ratio of 70% or higher and lower than 90%),5 (Herbicidal ratio of 90% or more (almost completely withered)),3 (Herbicidal ratio of 40% or higher and lower than 70%),5 (Herbicidal ratio of 90% or more (almost completely withered)),5 (Herbicidal ratio of 90% or more (almost completely withered)),4 (Herbicidal ratio of 70% or higher and lower than 90%),5 (Herbicidal ratio of 90% or more (almost completely withered)),,,,
CCc1cc(Br)cc(C)c1C1=C(O)CC(CC(C)=O)C1=O (stereo not drawn) [7-003],5 (Herbicidal ratio of 90% or more (almost completely withered)),5 (Herbicidal ratio of 90% or more (almost completely withered)),0 (Herbicidal ratio of 5% or lower (almost no effect)),0 (Herbicidal ratio of 5% or lower (almost no effect)),5 (Herbicidal ratio of 90% or more (almost completely withered)),0 (Herbicidal ratio of 5% or lower (almost no effect)),2 (Herbicidal ratio of 20% or higher and lower than 40%),0 (Herbicidal ratio of 5% or lower (almost no effect)),0 (Herbicidal ratio of 5% or lower (almost no effect)),0 (Herbicidal ratio of 5% or lower (almost no effect)),0 (Herbicidal ratio of 5% or lower (almost no effect)),0 (Herbicidal ratio of 5% or lower (almost no effect)),5 (Herbicidal ratio of 90% or more (almost completely withered)),,,,
CON=C(C)CC1CC(O)=C(c2c(C)cc(-c3ccc(F)cc3)cc2C)C1=O (mixture of isomers) [6-058],5 (Herbicidal ratio of 90% or more (almost completely withered)),,5 (Herbicidal ratio of 90% or more (almost completely withered)),5 (Herbicidal ratio of 90% or more (almost completely withered)),5 (Herbicidal ratio of 90% or more (almost completely withered)),5 (Herbicidal ratio of 90% or more (almost completely withered)),2 (Herbicidal ratio of 20% or higher and lower than 40%),,,5 (Herbicidal ratio of 90% or more (almost completely withered)),5 (Herbicidal ratio of 90% or more (almost completely withered)),,5 (Herbicidal ratio of 90% or more (almost completely withered)),5 (Herbicidal ratio of 90% or more (almost completely withered)),5 (Herbicidal ratio of 90% or more (almost completely withered)),5 (Herbicidal ratio of 90% or more (almost completely withered)),5 (Herbicidal ratio of 90% or more (almost completely withered))
CON=C(C)CC1CC(O)=C(c2c(C)cc(-n3cncn3)cc2C)C1=O (stereo not drawn) [6-074],0 (Herbicidal ratio of 5% or lower (almost no effect)),,0 (Herbicidal ratio of 5% or lower (almost no effect)),2 (Herbicidal ratio of 20% or higher and lower than 40%),4 (Herbicidal ratio of 70% or higher and lower than 90%),0 (Herbicidal ratio of 5% or lower (almost no effect)),0 (Herbicidal ratio of 5% or lower (almost no effect)),,,2 (Herbicidal ratio of 20% or higher and lower than 40%),0 (Herbicidal ratio of 5% or lower (almost no effect)),,1 (Herbicidal ratio of 5% or higher and lower than 20%),0 (Herbicidal ratio of 5% or lower (almost no effect)),0 (Herbicidal ratio of 5% or lower (almost no effect)),0 (Herbicidal ratio of 5% or lower (almost no effect)),0 (Herbicidal ratio of 5% or lower (almost no effect))
"CON=C(C)CC1CC(O)=C(c2c(C)cc(-c3ccc(Cl)cc3)cc2OC)C1=O (stereo not drawn) [6-077, 2-(4′-chloro-3-methoxy-5-methyl-[1,1′-biphenyl]-4-yl)-3-hydroxy-5-{2-(methoxyimino)propyl}cyclopent-2-enone]",5 (Herbicidal ratio of 90% or more (almost completely withered)),,1 (Herbicidal ratio of 5% or higher and lower than 20%),5 (Herbicidal ratio of 90% or more (almost completely withered)),5 (Herbicidal ratio of 90% or more (almost completely withered)),3 (Herbicidal ratio of 40% or higher and lower than 70%),2 (Herbicidal ratio of 20% or higher and lower than 40%),,,5 (Herbicidal ratio of 90% or more (almost completely withered)),4 (Herbicidal ratio of 70% or higher and lower than 90%),,5 (Herbicidal ratio of 90% or more (almost completely withered)),5 (Herbicidal ratio of 90% or more (almost completely withered)),5 (Herbicidal ratio of 90% or more (almost completely withered)),4 (Herbicidal ratio of 70% or higher and lower than 90%),4 (Herbicidal ratio of 70% or higher and lower than 90%)
CON=C(C)CC1CC(O)=C(c2c(OC)cc(C)cc2OC)C1=O (stereo not drawn) [6-103],5 (Herbicidal ratio of 90% or more (almost completely withered)),5 (Herbicidal ratio of 90% or more (almost completely withered)),0 (Herbicidal ratio of 5% or lower (almost no effect)),5 (Herbicidal ratio of 90% or more (almost completely withered)),5 (Herbicidal ratio of 90% or more (almost completely withered)),0 (Herbicidal ratio of 5% or lower (almost no effect)),0 (Herbicidal ratio of 5% or lower (almost no effect)),0 (Herbicidal ratio of 5% or lower (almost no effect)),0 (Herbicidal ratio of 5% or lower (almost no effect)),5 (Herbicidal ratio of 90% or more (almost completely withered)),0 (Herbicidal ratio of 5% or lower (almost no effect)),0 (Herbicidal ratio of 5% or lower (almost no effect)),5 (Herbicidal ratio of 90% or more (almost completely withered)),,,,
